{"source": "patent US9295670B2", "about": "“Methods for treating obstructive sleep apnea” (priority 2011, dated 2016)", "key": {"diagnosed OSA patients": {"tested_on": "diagnosed OSA patients", "test": "Double-blind, randomized, cross-over, placebo-controlled study of efficacy and safety of PYD in 6 OSA patients (Example 2; PSG, questionnaires)", "type": "in vivo, human", "details": "for Apnea/Hypopnea Index (AHI): 90 mg PYD bromide oral, mean of 6 patients; for Apnea/Hypopnea Index (AHI) / Apnea index (AI) / Hypopnea Index (HI): events per hour; for Apnea/Hypopnea Index (AHI) Reduction (%) / Hypopnea Index (HI) Reduction (%) / Apnea index (AI) Reduction (%) / Apnea/Hypopnea time Reduction (%) / Low Sat O2 Reduction (%) / Snore score Reduction (%): 90 mg vs placebo; for Apnea/Hypopnea time (%): percentage of total sleep time", "method": "A double-blind, randomized, cross-over, placebo-controlled study was conducted to evaluate the efficacy and safety of PYD in 6 diagnosed OSA patients. The study consists of a one-day acclimatization period followed immediately by a 2-day double-blind treatment period when patients received either 90 mg PYD bromide in hard shell capsules or a matching placebo before sleep with a light snack. All patients were required to maintain in a supine position throughout of the night, as OSA is most severe when patients is on their back. In such a way, the results are expected to be more conservative in judging therapeutic effects of the drug. Lights were turned off within 5 min after the administration of the drug. The patients were monitored by a PSG. Apnea, hypopnea, snoring, blood O2 saturation were monitored, recorded, and scored. Sleep questionnaires were taken everyday after sleep to evaluate the impact on the sleep satisfaction and at evening to evaluate the quality of life during the daytime. Safety of the drug was also monitored and evaluated."}, "[1]": {"test": "Serum drug concentrations after oral PYD bromide in OSA patients (Example 1, LC-MS)", "type": "in vivo, human", "method": "(§1) A randomized, double-blind, placebo-controlled, crossover study with PYD was undertaken in 12 patients with moderate to severe OSA. PYD was prepared by grinding pyridostigmine bromide pills manufactured by Sunve Pharmaceutical Co., LTD., Shanghai, China and recapsulated into hard shell capsules. PYD bromide at 30 mg, 60 mg, 120 mg, or placebo was orally administered to patients before sleep each night for a total of four continuous nights. Lights went out within 5 min after the administration. Blood was drawn at 0, 0.5, 1, 1.5, 2, 2.5, 3, 4 and 7 hours after the administration, and serum drug concentrations were determined by a LC-MS method after proper pre-treatment of the blood samples. Patients were monitored by either a PSG or a PM throughout the nights."}, "[2]": {"tested_on": "patients with moderate to severe OSA", "test": "Randomized, double-blind, placebo-controlled, crossover study with PYD in 12 patients with moderate to severe OSA (Example 1; PSG or PM)", "type": "in vivo, human", "method": "as §1"}, "OSA patient": {"tested_on": "OSA patient", "test": "Randomized, double-blind, dose escalating study in one OSA patient (Example 3; PSG)", "type": "in vivo, human", "details": "FIG. 9", "method": "A randomized, double-blind, dose escalating study was carried out in one patient to determine optimum PYD dose range for treating OSA. The patient was administered to with 30, 60, 90 mg PYD bromide or a placebo before sleep, and was monitored by PSG throughout the night. AHI, AI, and total apnea/hypopnea time were lower in the nights administered with 30 or 60 mg PYD bromide compared with the night with 90 mg PYD bromide (FIG. 9). The number of low O2 saturation events was lower with 60 mg PYD bromide compared with that of 90 mg PYD bromide. The results obtained from the clinical study described in Example 2 were reexamined to compare the therapeutic responses in the windows of 2-5 hours and 5-7 hours after sleep. […] Since serum PYD concentrations are expected to be lower within 5-7 hours comparing with those within 2-5 hours, the optimum dose range may be less than 90 mg of PYD bromide in a single dose."}, "[3]": {"details": "in vivo; cited from earlier work"}, "[4]": {"details": "0-2 hr, P value >0.05, listed as Drug"}, "[5]": {"details": "0-2 hr, P value >0.05, listed as PYD bromide"}, "[6]": {"details": "2-7 hr, P value >0.05, listed as Drug"}, "[7]": {"details": "2-7 hr, P value >0.05, listed as PYD bromide"}, "[8]": {"details": "one patient, three treatment nights (30, 60, 120 mg), 2-7 hours after lights off"}}, "note": "“Also recorded” adds a separate entry of the source. Marks after values point to notes of the source that are not given here.", "data": [{"smiles": "CN(C)C(=O)Oc1ccc[n+](C)c1", "note": "[PYD, pyridostigmine]", "values": [{"measurement": "Apnea/Hypopnea Index (AHI)", "setting": "diagnosed OSA patients; 0-2 hr after sleep", "value": 29.6}, {"measurement": "Apnea/Hypopnea Index (AHI)", "setting": "diagnosed OSA patients; 2-7 hr after sleep", "value": 20.4}, {"measurement": "Apnea/Hypopnea Index (AHI) Reduction (%)", "setting": "diagnosed OSA patients; 0-2 hr after sleep, P value >0.05, listed as Drug", "value": "13.1*** %"}, {"measurement": "Apnea/Hypopnea Index (AHI) Reduction (%)", "setting": "diagnosed OSA patients; 0-2 hr after sleep, P value >0.05, listed as PYD bromide", "value": "No statistically significant reduction"}, {"measurement": "Hypopnea Index (HI) Reduction (%)", "setting": "diagnosed OSA patients; 0-2 hr, P value >0.05", "value": "−17.7*** %"}, {"measurement": "Apnea index (AI) Reduction (%)", "setting": "diagnosed OSA patients; [4]", "value": "26.7*** %"}, {"measurement": "Apnea/Hypopnea time Reduction (%)", "setting": "diagnosed OSA patients; [4]", "value": "21.5*** %"}, {"measurement": "Low Sat O2 Reduction (%)", "setting": "diagnosed OSA patients; [4]", "value": "6.6*** %"}, {"measurement": "Snore score Reduction (%)", "setting": "diagnosed OSA patients; [4]", "value": "3.3*** %"}, {"measurement": "Apnea index (AI) Reduction (%)", "setting": "diagnosed OSA patients; [5]", "value": "No statistically significant reduction"}, {"measurement": "Apnea/Hypopnea time Reduction (%)", "setting": "diagnosed OSA patients; [5]", "value": "No statistically significant reduction"}, {"measurement": "Low Sat O2 Reduction (%)", "setting": "diagnosed OSA patients; [5]", "value": "No statistically significant reduction"}, {"measurement": "Snore score Reduction (%)", "setting": "diagnosed OSA patients; [5]", "value": "No statistically significant reduction"}, {"measurement": "Apnea/Hypopnea Index (AHI) Reduction (%)", "setting": "diagnosed OSA patients; 2-7 hr after sleep, P value <0.01 (0.0003), listed as Drug", "value": "28.0* %"}, {"measurement": "Apnea/Hypopnea Index (AHI) Reduction (%)", "setting": "diagnosed OSA patients; 2-7 hr after sleep, P value <0.01 (0.0003), listed as PYD bromide", "value": 28.0, "unit": "%"}, {"measurement": "Apnea/Hypopnea time Reduction (%)", "setting": "diagnosed OSA patients; 2-7 hr, 0.01 < P value < 0.05 (0.0133), listed as Drug", "value": "36.4** %"}, {"measurement": "Apnea/Hypopnea time Reduction (%)", "setting": "diagnosed OSA patients; 2-7 hr, 0.01 < P value < 0.05 (0.0133), listed as PYD bromide", "value": 36.4, "unit": "%"}, {"measurement": "Apnea index (AI) Reduction (%)", "setting": "diagnosed OSA patients; 2-7 hr, 0.01 < P value < 0.05 (0.0314), listed as Drug", "value": "37.3** %"}, {"measurement": "Apnea index (AI) Reduction (%)", "setting": "diagnosed OSA patients; 2-7 hr, 0.01 < P value < 0.05 (0.0314), listed as PYD bromide", "value": 37.3, "unit": "%"}, {"measurement": "Snore score Reduction (%)", "setting": "diagnosed OSA patients; 2-7 hr, P value <0.01 (0.0041), listed as Drug", "value": "18.8* %"}, {"measurement": "Snore score Reduction (%)", "setting": "diagnosed OSA patients; 2-7 hr, P value <0.01 (0.0041), listed as PYD bromide", "value": 18.8, "unit": "%"}, {"measurement": "Hypopnea Index (HI) Reduction (%)", "setting": "diagnosed OSA patients; [6]", "value": "10.3*** %"}, {"measurement": "Low Sat O2 Reduction (%)", "setting": "diagnosed OSA patients; [6]", "value": "12.5*** %"}, {"measurement": "Hypopnea Index (HI) Reduction (%)", "setting": "diagnosed OSA patients; [7]", "value": 10.3, "unit": "%"}, {"measurement": "Low Sat O2 Reduction (%)", "setting": "diagnosed OSA patients; [7]", "value": 12.5, "unit": "%"}, {"measurement": "Low Sat O2 (events/hr)", "setting": "diagnosed OSA patients; 90 mg, 0-2 hr after sleep", "value": 35.1, "unit": "events/hr"}, {"measurement": "Snore score (events/hr)", "setting": "diagnosed OSA patients; 90 mg, 0-2 hr after sleep", "value": 528, "unit": "events/hr"}, {"measurement": "Apnea index (AI)", "setting": "diagnosed OSA patients; 90 mg, 0-2 hr after sleep", "value": 16.9}, {"measurement": "Hypopnea Index (HI)", "setting": "diagnosed OSA patients; 90 mg, 0-2 hr after sleep", "value": 12.0}, {"measurement": "Apnea/Hypopnea time (%)", "setting": "diagnosed OSA patients; 90 mg, 0-2 hr", "value": 18.7, "unit": "%"}, {"measurement": "Low Sat O2 (events/hr)", "setting": "diagnosed OSA patients; 90 mg, 2-7 hr after sleep", "value": 24.9, "unit": "events/hr"}, {"measurement": "Snore score (events/hr)", "setting": "diagnosed OSA patients; 90 mg, 2-7 hr after sleep", "value": 485, "unit": "events/hr"}, {"measurement": "Apnea index (AI)", "setting": "diagnosed OSA patients; 90 mg, 2-7 hr after sleep", "value": 11.7}, {"measurement": "Hypopnea Index (HI)", "setting": "diagnosed OSA patients; 90 mg, 2-7 hr after sleep", "value": 8.7}, {"measurement": "Apnea/Hypopnea time (%)", "setting": "diagnosed OSA patients; 90 mg, 2-7 hr", "value": 14.5, "unit": "%"}, {"measurement": "PSG scores (AHI, AI, total apnea/hypopnea time, low O2 saturation events)", "setting": "diagnosed OSA patients; 90 mg, 5-7 hours compared with 2-5 hours after sleep, FIG. 10", "value": "statistically significantly lower"}, {"measurement": "daytime quality of life reported by patients", "setting": "diagnosed OSA patients; daytime following the drug treatment night", "value": "more energy, be more concentrated and be less sleepy"}, {"measurement": "tolerability / serious adverse reactions", "setting": "diagnosed OSA patients; single dose 90 mg PYD bromide", "value": "well tolerated; also recorded: no serious adverse reaction was reported"}, {"measurement": "adverse reactions found", "setting": "diagnosed OSA patients; single dose 90 mg, one patient", "value": "minor stomach upset"}, {"measurement": "longer total sleep time in the treatment night (average)", "setting": "diagnosed OSA patients; three patients, treatment night vs placebo night, FIG. 8", "value": 33, "unit": "min"}, {"measurement": "noise of snoring", "setting": "diagnosed OSA patients; treatment night compared with placebo night", "value": "quieter"}, {"measurement": "sleep quality, patients' self evaluation questionnaire", "setting": "diagnosed OSA patients; treatment night vs placebo night, FIG. 8", "value": "better sleep, more clear-headed, more energetic, and more satisfied sleep"}, {"measurement": "serum drug concentrations in one patient", "setting": "[1]; one patient monitored by PSG all four nights, 30, 60, 120 mg oral, FIG. 2", "value": "3 to 45", "unit": "ng/mL"}, {"measurement": "time of peak serum drug concentration", "setting": "[1]; oral PYD bromide 30, 60 or 120 mg before sleep, 12 OSA patients, FIG. 1", "value": "3 to 4", "unit": "h"}, {"measurement": "serious adverse reactions", "setting": "[2]; 30, 60, 120 mg oral, during the study", "value": "No serious adverse reaction was reported"}, {"measurement": "serum drug concentrations at which patients particularly responded positively", "setting": "[2]; 'particularly between'", "value": "3 to 60", "unit": "ng/mL"}, {"measurement": "AHI and events of low O2 saturation", "setting": "[2]; one patient, 0-2 hours after lights off", "value": "largely not changed"}, {"measurement": "AHI and low O2 saturation, dose response", "setting": "[2]; one patient, 30-60 mg compared with 120 mg PYD bromide, FIG. 2", "value": "lower AHI and less low O2 saturation"}, {"measurement": "reduction of AHI compared with placebo", "setting": "[2]; [8]", "value": "11-23%"}, {"measurement": "reduction of events of low blood O2 saturation compared with placebo", "setting": "[2]; [8]", "value": "10-18%"}, {"measurement": "adverse reactions at the highest dose", "setting": "[2]; patients treated with the highest dose", "value": "stomach upset and mild muscle cramp"}, {"measurement": "serum drug concentrations at which patients responded positively", "setting": "[2]; positive responses: reduction of AHI, AI, apnea/hypopnea time, snoring, increase in minimum oxygen saturation", "value": "2 to 150", "unit": "ng/mL"}, {"measurement": "number of low O2 saturation events", "setting": "OSA patient; 60 mg compared with 90 mg PYD bromide", "value": "lower"}, {"measurement": "AHI, AI, and total apnea/hypopnea time", "setting": "OSA patient; nights with 30 or 60 mg compared with the night with 90 mg PYD bromide", "value": "lower"}, {"measurement": "elimination half-life", "setting": "[3]", "value": "approximately 1.78 hours"}]}]}
